The values that follow come from ChEMBL document CHEMBL1201862, “PubChem BioAssay data set” (2004).

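All cell lines were grown in 96-well plates and treated with compound for 48 hours. The concentration for 50% growth inhibition is given as GI50.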 Active and inactive are the calls of the source. Cut-off read from the data, not from the text of the source: active = GI50 up to about 1.1 µM and inactive = higher.

Assay in all cases: DTP human tumour cell line panel, 48 h
Assay [1] concerns HCT-15.
The test system of assay [2] is HCC 2998.
Assay [3] deals with OVCAR-5.
In assay [4] the test system is T47D.
The subject of assay [5] is RPMI-8226.
Assay [6] deals with TK-10.
The subject of assay [7] is SK-OV-3.
For assay [8], the system named is HT-29.
Assay [9] has as its system IGROV-1.
Assay [10] deals with MDA-MB-435.
Assay [11] concerns NCI-H460.
For assay [12], the system named is ACHN.
Assay [13] relates to Hs-578T.
The test system of assay [14] is U-251.
Assay [15] concerns SF-539.
Assay [16] has as its system NCI-H522.
Assay [17] deals with EKVX.
Assay [18] relates to MDA-MB-231.
For assay [19], the system named is UACC-257.
In assay [20] the test system is OVCAR-3.

As for `CC1=NC(=Cc2ccccc2O)C(=O)N1n1c(-c2ccccc2)nc2ccccc2c1=O`, the GI50 in [1] is 39.4 µM; in assay [2], 38.1 µM (inactive); in [3], 40.5 µM (inactive); in assay [4], 21.5 µM (inactive); in assay [5], 48.5 µM (inactive); in assay [6] it was 39.4 µM (inactive). Further, the GI50 was 33.3 µM (inactive) in assay [7]; 32.4 µM (inactive) in [8]; 32.1 µM (inactive) in assay [9]; 46.9 µM (inactive) in [10]; 30.3 µM (inactive) in [11]; 29.7 µM (inactive) in assay [12]. For the same molecule, the GI50 in assay [13] was 51.1 µM (inactive); in [14], 38.4 µM (inactive); in assay [15] it was 26.7 µM (inactive); in assay [16], 62.8 µM (inactive); in [17] it was 34.9 µM (inactive); in assay [18], 33.2 µM (inactive). Moreover, the GI50 in [19] is 41.9 µM (inactive); in assay [20] it was 26.7 µM (inactive).

For `O=C(N/C=C1\C(=O)Oc2ccccc2C1=O)Oc1ccccc1`, the GI50 in [1] was 23.7 µM; in assay [2] it was 24.8 µM (inactive); in assay [3] it was 46.1 µM (inactive); in assay [4] it was 22.4 µM (inactive); in assay [5], 91.4 µM (inactive); in [6] it was 22.9 µM (inactive). Moreover, the GI50 in assay [7] is 6.27 µM (inactive); in [8], 40.8 µM (inactive); in [9], 20.7 µM (inactive); in [10], 20.1 µM (inactive); in assay [11], 33.9 µM (inactive); in assay [12], 20.9 µM (inactive). Further, the GI50 in assay [13] is 9.64 µM (inactive); in assay [14] it was 23.9 µM (inactive); in assay [15], 16 µM (inactive); in assay [16], 25 µM (inactive); in assay [17], 27.7 µM (inactive); in assay [18], 16.7 µM (inactive). In addition, the GI50 is 31 µM (inactive) in assay [19] and 17 µM (inactive) in assay [20].

For the molecule `O=C(O)C(CCc1ccccn1)c1ccccc1` (stereo not given), the concentration for 50% growth inhibition (GI50) is greater than 100 µM in [1]; > 100 µM (inactive) in [2]; > 100 µM (inactive) in [3]; > 100 µM (inactive) in [4]; > 100 µM (inactive) in assay [5]; > 100 µM (inactive) in [6]. Besides, the GI50 in assay [7], in assay [8], in assay [9], in assay [10], in assay [11] and in assay [12] was > 100 µM (inactive) in each case. For the same molecule, the GI50 in assay [13], in assay [14], in [15], in [16], in assay [17] and in [18] was > 100 µM (inactive) throughout. The GI50 in assay [19] and in assay [20] was > 100 µM (inactive) each time.

Turning to `CC(NC(=O)NC(C)(C)C)NC(=O)C(N)CC(=O)O` (stereo not given), the GI50 in [1] was greater than 100 µM; in assay [2], > 10 µM (inactive); in assay [3] it was > 100 µM (inactive); in assay [4], > 100 µM (inactive); in [5] it was > 100 µM (inactive); in assay [6], > 100 µM (inactive). Also, the GI50 is 15.8 µM (inactive) in [7]; > 100 µM (inactive) in assay [8]; > 100 µM (inactive) in [9]; > 100 µM (inactive) in assay [10]; > 100 µM (inactive) in assay [11]; > 100 µM (inactive) in assay [12]. In addition, the GI50 in assay [13], in [14], in assay [15], in assay [16], in [17] and in [18] was > 100 µM (inactive) throughout. The GI50 in [19] and in [20] was > 100 µM (inactive) in each case.
